Data reported in patent US20250195502A1, “APPLICATION OF TETRACYCLIC COMPOUND IN TREATMENT OF TUMORS” (SHANGHAI SHIJIANG BIOTECHNOLOGY CO., LTD, priority 2022, published 2025).
Where two headings read alike, the source gives them in different places.

Columns and labels:
Type in all cases: cell-based
[1] = system: G-401 (human renal carcinoma Wilms cell); test: Cell viability assay (Promega CellTiter-Glo), inhibitory effect on G-401; conditions: 72 h, 3 days of culture
How it was run: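 IC50 comes from luminescent ATP-based viability measured after 3 days of exposure to serially diluted compound. Cultures were kept in McCoy's 5a medium containing 10% fetal bovine serum.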

[2] = system: 786-O (clear cell renal cell adenocarcinoma cell); test: Cell viability assay (Promega CellTiter-Glo), inhibitory effect on 786-O; conditions: Homo sapiens, 786-0, 72 h, 3 days of culture
How it was run: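 Cell viability determined from ATP content (CellTiter-Glo) after 3-day exposure to compound dilution series, giving IC50. Cells: 786-O clear cell renal adenocarcinoma line in 10% FBS-containing RPMI1640 (+P/S).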

[3] = system: NB-1 (brain neuroblastoma cell); test: Cell viability assay (Promega CellTiter-Glo), inhibitory effect on NB-1; conditions: Homo sapiens, 72 h, 3 days of culture, read-out: inhibitory effect on brain cell line NB-1 (IC50)
How it was run: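 NB-1 cells grown in L-15 medium with 10% FBS were exposed to serially diluted compounds for 3 days after passage. Viability was read as intracellular ATP by CellTiter-Glo luminescence. IC50 was taken as the concentration giving 50% inhibition.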

[4] = system: sh-DNMT1 NCI-H82 cell (DNMT1 knocked down NCI-H82); test: Cell viability assay (Promega CellTiter-Glo), inhibitory effect on sh-DNMT1 NCI-H82 cell; conditions: Homo sapiens, NCI-H82 with DNMT1 knocked down by shRNA
How it was run: (§1)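 Viability measured by CellTiter-Glo in three NCI-H82 variants: empty-vector control, viral NNMT overexpression, and viral shRNA DNMT1 knockdown, each checked by Western blot.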

[5] = system: CFPAC-1 (human pancreatic cancer cell); test: Cell viability assay (Promega CellTiter-Glo), inhibitory effect on CFPAC-1; conditions: 72 h, 3 days of culture
How it was run: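 Viability readout via ATP content (CellTiter-Glo) after 3-day exposure to gradient-diluted compounds; IC50 reported. Cells: CFPAC-1, grown in IMDM plus 10% fetal bovine serum.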

[6] = system: NCI-H82 (human small cell lung cancer cell); test: Cell viability assay (Promega CellTiter-Glo), inhibitory effect on NCI-H82; conditions: 72 h, 3 days of culture
How it was run: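 After 3 days of culture with graded compound doses, ATP-based luminescence (CellTiter-Glo) gave the viability of human small cell lung cancer NCI-H82 cells, maintained in 10% FBS-containing RPMI1640. IC50 is the 50% inhibiting concentration.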

[7] = system: SW48 (human colon adenocarcinoma cell); test: Cell viability assay (Promega CellTiter-Glo), inhibitory effect on SW48; conditions: 72 h, 3 days of culture
How it was run: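 IC50 derived from CellTiter-Glo ATP luminescence after 3-day culture with a compound dilution series; cells kept in Leibovitz's L-15 plus 10% fetal bovine serum.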

[8] = system: ov-NNMT NCI-H82 cell (NNMT protein-overexpressing NCI-H82); test: Cell viability assay (Promega CellTiter-Glo), inhibitory effect on ov-NNMT NCI-H82 cell; conditions: Homo sapiens
How it was run: as §1

[9] = system: Kelly (brain neuroblastoma cell); test: Cell viability assay (Promega CellTiter-Glo), inhibitory effect on Kelly; conditions: Homo sapiens, 72 h, 3 days of culture, read-out: inhibitory effect on brain cell line Kelly (IC50)
How it was run: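 Kelly cells were cultured in RPMI1640 with 10% FBS and 2 mM glutamine, then treated with serially diluted compounds for 3 days. Viability was measured as intracellular ATP by CellTiter-Glo luminescence, and IC50 was derived from the dose-response.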

[10] = system: D341 Med (cerebellar medulloblastoma cell); test: Cell viability assay (Promega CellTiter-Glo), inhibitory effect on D341 Med; conditions: Homo sapiens, 72 h, 3 days of culture, read-out: inhibitory effect on brain cell line D341 Med (IC50)
How it was run: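 D341 Med cells grown in EMEM with 20% FBS (+P/S) were treated with serially diluted compounds after passage. Viability after 3 days of culture was read as intracellular ATP by CellTiter-Glo luminescence, and IC50 was derived.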

[11] = system: GB-1 (human brain glioblastoma cell); test: Cell viability assay (Promega CellTiter-Glo), inhibitory effect on GB-1; conditions: 72 h, 3 days of culture
How it was run: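 Intracellular ATP measured by CellTiter-Glo served as the viability readout for IC50, taken 3 days after adding gradient-diluted compound. Cells were kept in 10% FBS-containing DMEM.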

[12] = system: MDA-MB-453 (breast cancer cell); test: Cell viability assay (Promega CellTiter-Glo), inhibitory effect on MDA-MB-453; conditions: Homo sapiens, 72 h, 3 days of culture
How it was run: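 IC50 comes from ATP-based CellTiter-Glo viability measured after 3 days of exposure to graded compound concentrations. Cultures were kept in L-15 medium containing 10% fetal bovine serum.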

[13] = system: SF126 (human glioblastoma multiforme cell); test: Cell viability assay (Promega CellTiter-Glo), inhibitory effect on SF126
How it was run: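 IC50 reflects 50% loss of CellTiter-Glo ATP signal in SF126 glioblastoma cells. Cells were cultured in 10% FBS-containing EMEM and treated with serially diluted compound for 3 days.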

[14] = system: Con-NCI-H82 cell (NCI-H82 transfected with empty virus vector); test: Cell viability assay (Promega CellTiter-Glo), inhibitory effect on Con-NCI-H82 cell; conditions: Homo sapiens; NCI-H82 transfected with empty virus vector (control); CellTiter-Glo; read-out: inhibitory effect on Con-NCI-H82 (IC50)
How it was run: as §1

[15] = Table 3, read-out: inhibitory effect on GB-1 (IC50)
[16] = Table 4, read-out: inhibitory effect on brain cell line GB-1 (IC50)
[17] = 72 h, SF-126, 3 days of culture, Table 3, read-out: inhibitory effect on SF-126 (IC50)
[18] = SF-126, 72 h, SF126, 3 days of culture, Table 4, read-out: inhibitory effect on brain cell line SF126 (IC50)

IC50 [1] [nM]	IC50 [2] [nM]	IC50 [3] [nM]	IC50 [4] [nM]	IC50 [5] [nM]	IC50 [6] [nM]	IC50 [7] [nM]	IC50 [8] [nM]	IC50 [9] [nM]	IC50 [10] [nM]	IC50 [11, 15] [nM]	IC50 [11, 16] [nM]	IC50 [12] [nM]	IC50 [13, 17] [nM]	IC50 [13, 18] [nM]	IC50 [14] [nM]	Structure (SMILES)
260	2980	210	1050	4510	300	560	850	460	510	3220	3220	310	3770	3770	300	COc1ccc2c(Cc3ccc(C(C)C)cc3)c3[n+](cc2c1OC)CCc1cc2c(cc1-3)OCO2 [compound AB31789]
820	4750	230	1390	7820	430	420	1520	270	260	3730	3730	910	3260	3260	430	COc1ccc2cc3[n+](cc2c1OCC(=O)/C=C/c1ccc(C)cc1)CCc1cc2c(cc1-3)OCO2 [compound AB31790]
1840	25800	1030	6040	> 50000	2110	1350	4820	4820	4800	> 50000	> 50000	4110	> 50000	> 50000	2110	COc1ccc2c(Cc3ccc(C(F)(F)F)cc3)c3[n+](cc2c1OC)CCc1cc2c(cc1-3)OCO2 [compound AB31805]
480	3900	60	1040	7320	330	390	860	1050	430	5560	5560	280	4580	4580	330	COc1ccc2cc3[n+](cc2c1OCCCCCCNC(=O)OC(C)(C)C)CCc1cc2c(cc1-3)OCO2 [compound AB31808]
530	7880	160	1860	15500	440	560	1380	990	1920	11800	11800	870	10100	10100	440	COc1ccc(CCCc2c3[n+](cc4c(OC)c(OC)ccc24)CCc2cc4c(cc2-3)OCO4)cc1 [compound AB31809]
